According to PubChem BioAssay AID256 (DTP/NCI, 2004):
“And” between values parts separate entries of the source, which are not always exact repeats. Identical values can stand only once. Inconclusive results and toxic doses are left out. The calls were made as follows: active = survival T/C of 150% or more; inactive = T/C below 125% in these data.

Tested on: CD2F1 mice, L1210 leukemia ip, survival T/C
Assay: NCI In Vivo Anticancer Drug Screen. Data for tumor model L1210 Leukemia (intraperitoneal) in CD2F1 (CDF1) mice
Conditions: higher = longer survival
Summary of the method: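 Transplantable tumor in mice; compound-treated vs vehicle-treated groups. Read-out = treated/control ratio of the measured endpoint.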

[1] = endpoint: mean survival time, dose: 50.0 mg/kg/injection, schedule: Q01DX009 (ip), vehicle: saline with Tween-80
[2] = endpoint: mean survival time, dose: 100.0 mg/kg/injection, schedule: Q01DX009 (ip), vehicle: saline with Tween-80
[3] = endpoint: mean survival time, dose: 200.0 mg/kg/injection, schedule: Q01DX009 (ip), vehicle: saline with Tween-80
[4] = endpoint: mean survival time, dose: 100.0 mg/kg/injection, schedule: Q04DX002 (ip), vehicle: saline with Tween-80
[5] = endpoint: mean survival time, dose: 200.0 mg/kg/injection, schedule: Q04DX002 (ip), vehicle: saline with Tween-80
[6] = endpoint: mean survival time, dose: 400.0 mg/kg/injection, schedule: Q04DX002 (ip), vehicle: saline with Tween-80
[7] = endpoint: mean survival time, dose: 37.5 mg/kg/injection, schedule: Q01DX009 (ip), vehicle: saline
[8] = endpoint: mean survival time, dose: 75.0 mg/kg/injection, schedule: Q01DX009 (ip), vehicle: saline
[9] = endpoint: mean survival time, dose: 150.0 mg/kg/injection, schedule: Q01DX009 (ip), vehicle: saline
[10] = endpoint: mean survival time, dose: 100.0 mg/kg/injection, schedule: Q04DX003 (ip), vehicle: saline with Tween-80
[11] = endpoint: mean survival time, dose: 200.0 mg/kg/injection, schedule: Q04DX003 (ip), vehicle: saline with Tween-80
[12] = endpoint: mean survival time, dose: 12.5 mg/kg/injection, schedule: Q01DX005 (ip), vehicle: distilled water + Tween-80
[13] = endpoint: mean survival time, dose: 25.0 mg/kg/injection, schedule: Q01DX005 (ip), vehicle: distilled water + Tween-80
[14] = endpoint: mean survival time, dose: 50.0 mg/kg/injection, schedule: Q01DX005 (ip), vehicle: distilled water + Tween-80
[15] = endpoint: mean survival time, dose: 100.0 mg/kg/injection, schedule: Q01DX005 (ip), vehicle: distilled water + Tween-80
[16] = endpoint: mean survival time, dose: 400.0 mg/kg/injection, schedule: Q01DX009 (ip), vehicle: saline with Tween-80
[17] = endpoint: mean survival time, dose: 400.0 mg/kg/injection, schedule: Q04DX003 (ip), vehicle: saline with Tween-80

Measured: T/C

COC(=O)C(Cl)(Cl)N=Nc1c(Cl)cc(Cl)c(C)c1Cl
inactive: endpoint: mean survival time, dose: 6.25 mg/kg/injection, schedule: Q01DX009 (ip), vehicle: saline with Tween-80 96 % of control | endpoint: mean survival time, dose: 6.25 mg/kg/injection, schedule: Q01DX009 (ip), vehicle: saline 93 % of control | endpoint: mean survival time, dose: 12.5 mg/kg/injection, schedule: Q01DX009 (ip), vehicle: saline with Tween-80 100 % of control | endpoint: mean survival time, dose: 12.5 mg/kg/injection, schedule: Q01DX009 (ip), vehicle: saline 98 % of control | endpoint: mean survival time, dose: 25.0 mg/kg/injection, schedule: Q01DX009 (ip), vehicle: saline with Tween-80 97 % of control | endpoint: mean survival time, dose: 25.0 mg/kg/injection, schedule: Q01DX009 (ip), vehicle: saline 93 % of control | [1] 94 % of control | endpoint: mean survival time, dose: 50.0 mg/kg/injection, schedule: Q01DX009 (ip), vehicle: saline 98 % of control | [2] 102 % of control | endpoint: mean survival time, dose: 100.0 mg/kg/injection, schedule: Q01DX009 (ip), vehicle: saline 90 % of control | [3] 86 % of control | endpoint: mean survival time, dose: 200.0 mg/kg/injection, schedule: Q01DX009 (ip), vehicle: saline 86 % of control

CCC(c1ccc(OC)cc1)C(CC)c1ccc(O)c(CN2CCN(C)CC2)c1 (stereo unspecified)
inactive: [2] 102 % of control

Clc1ccc(SC=C(Sc2ccc(Cl)cc2)Sc2ccc(Cl)cc2)cc1
inactive: endpoint: mean survival time, dose: 100.0 mg/kg/injection, schedule: Q04DX002 (ip), vehicle: other 94 % of control | endpoint: mean survival time, dose: 200.0 mg/kg/injection, schedule: Q04DX002 (ip), vehicle: other 94 % of control | endpoint: mean survival time, dose: 400.0 mg/kg/injection, schedule: Q04DX002 (ip), vehicle: other 87 % of control

C1OCC2[CH2][Hg][S][Hg][CH2]C1O2
inactive: endpoint: mean survival time, dose: 4.0 mg/kg/injection, schedule: Q01DX015 (ip), vehicle: saline 109 % of control | endpoint: mean survival time, dose: 8.0 mg/kg/injection, schedule: Q01DX015 (ip), vehicle: saline 107 % of control

CC(=O)OCC1OC(n2ncnc2CI)C(OC(C)=O)C(OC(C)=O)C1OC(C)=O (stereo unspecified)
inactive: endpoint: median survival time, dose: 12.5 mg/kg/injection, schedule: Q01DX005 (ip), vehicle: distilled water + Tween-80 105 % of control | endpoint: median survival time, dose: 25.0 mg/kg/injection, schedule: Q01DX005 (ip), vehicle: distilled water + Tween-80 105 % of control | endpoint: median survival time, dose: 50.0 mg/kg/injection, schedule: Q01DX005 (ip), vehicle: distilled water + Tween-80 96 % of control

CCOC(=O)C(c1ccccc1)P(=O)(OCC)OCC (stereo unspecified)
inactive: [4] 111 % of control | [5] 100 % of control | [6] 100 % of control

NCCSC1(O)C(=O)c2ccccc2-c2ccccc21 (stereo unspecified)
inactive: [7] 100 % of control | [8] 101 % of control | [9] 91 % of control

COC(=O)C(Br)CCC(Br)C(=O)OC (stereo unspecified)
inactive: endpoint: mean survival time, dose: 50.0 mg/kg/injection, schedule: Q04DX003 (ip), vehicle: saline with Tween-80 94 % of control | [2] 95 % of control | [10] 94 % of control | [3] 103 % of control | [11] 94 % of control

O=C1CCCN1C1CC2c3ccccc3C1c1cccc[n+]12 (stereo unspecified)
inactive: endpoint: mean survival time, dose: 5.0 mg/kg/injection, schedule: Q04DX003 (ip), vehicle: saline with Tween-80 95 % of control | endpoint: mean survival time, dose: 10.0 mg/kg/injection, schedule: Q04DX003 (ip), vehicle: saline with Tween-80 95 % of control | endpoint: mean survival time, dose: 20.0 mg/kg/injection, schedule: Q04DX003 (ip), vehicle: saline with Tween-80 97 % of control

Cc1ccc(C(=O)NC2C(=O)NC(C(C)C)C(=O)N3CCCC3C(=O)N(C)CC(=O)N(C)C(C(C)C)C(=O)OC2C)c2c1Oc1c(c(C(=O)NC3C(=O)NC(C(C)C)C(=O)N4CCCC4C(=O)N(C)CC(=O)N(C)C(C(C)C)C(=O)OC3C)c3nc(-c4ccccc4)c(=O)oc3c1C)N2 (stereo unspecified)
inactive: endpoint: median survival time, dose: 0.06 mg/kg/injection, schedule: Q01DX009 (ip), vehicle: water 112 % of control | endpoint: median survival time, dose: 0.12 mg/kg/injection, schedule: Q01DX009 (ip), vehicle: water 122 % of control | endpoint: median survival time, dose: 0.25 mg/kg/injection, schedule: Q01DX009 (ip), vehicle: water 117 % of control

[N-]=[N+]=Nc1cc(NC(=O)c2ccccc2)ccc1NC(=O)c1ccccc1
inactive: [1] 101 % of control | [2] 96 % of control | [3] 104 % of control

[I][Ni][I].c1ccc([PH+](c2ccccc2)c2ccccc2)cc1.c1ccc([PH+](c2ccccc2)c2ccccc2)cc1
inactive: [4] 87 % of control | [5] 91 % of control | [6] 87 % of control

Cn1c(=O)c2[nH]c(NCc3ccccc3)nc2n(C)c1=O
inactive: [12] 93 % of control | [13] 90 % of control | [14] 90 % of control | [15] 94 % of control | endpoint: mean survival time, dose: 200.0 mg/kg/injection, schedule: Q01DX005 (ip), vehicle: distilled water + Tween-80 90 % of control

CCOC(=O)N/N=C/c1ccccc1
inactive: endpoint: mean survival time, dose: 100.0 mg/kg/injection, schedule: Q01DX001 (ip), vehicle: saline with Tween-80 103 % of control | endpoint: mean survival time, dose: 200.0 mg/kg/injection, schedule: Q01DX001 (ip), vehicle: saline with Tween-80 108 % of control | endpoint: mean survival time, dose: 400.0 mg/kg/injection, schedule: Q01DX001 (ip), vehicle: saline with Tween-80 110 % of control

NC(C(=O)O)C(O)C(=O)O (stereo unspecified)
inactive: [7] 101 % of control | [8] 97 % of control | [9] 98 % of control

CC1C(C(=O)c2ccccc2)C(c2ccccc2)OP1(c1ccccc1)(c1ccccc1)c1ccccc1 (stereo unspecified)
inactive: endpoint: mean survival time, dose: 6.25 mg/kg/injection, schedule: Q01DX001 (ip), vehicle: saline with Tween-80 97 % of control | endpoint: mean survival time, dose: 12.5 mg/kg/injection, schedule: Q01DX001 (ip), vehicle: saline with Tween-80 96 % of control | endpoint: mean survival time, dose: 25.0 mg/kg/injection, schedule: Q01DX001 (ip), vehicle: saline with Tween-80 105 % of control

Cc1c2cnccc2c(C)c2c1c1ccccc1n2CCO
inactive: [10] 123 % of control | [11] 117 % of control
active: [16] 170 % of control | [17] 162 % of control

CC(=O)/C=C/Sc1n[nH]c(=O)[nH]c1=O
inactive: [12] 106 % of control | [13] 101 % of control | [14] 107 % of control | [15] 98 % of control

CN1C=CC(C(C(N)=O)c2ccccc2)c2ccccc21 (stereo unspecified)
inactive: [10] 96 % of control | [11] 102 % of control | [17] 97 % of control

CC(=O)CC(=O)C(F)(F)F.CC(=O)CC(=O)C(F)(F)F.CC(=O)CC(=O)C(F)(F)F.[Sm]
inactive: [10] 95 % of control | [11] 100 % of control | [17] 100 % of control

CCCCC(C#N)C(=O)OCC (stereo unspecified)
inactive: [10] 96 % of control | [11] 93 % of control

Cn1c(=O)cc(O)c2ccccc21
inactive: [10] 101 % of control | [11] 97 % of control | [17] 97 % of control

Cc1c(NC(=O)Nc2cc([N+](=O)[O-])ccc2Cl)c(=O)n(-c2ccccc2)n1C
inactive: endpoint: mean survival time, dose: 100.0 mg/kg/injection, schedule: Q01DX001 (ip), vehicle: saline 96 % of control | [2] 89 % of control and 98 % of control | endpoint: mean survival time, dose: 100.0 mg/kg/injection, schedule: Q04DX002 (ip), vehicle: saline 93 % of control and 107 % of control | [10] 104 % of control | endpoint: mean survival time, dose: 200.0 mg/kg/injection, schedule: Q01DX001 (ip), vehicle: saline 86 % of control | [3] 96 % of control and 102 % of control | endpoint: mean survival time, dose: 200.0 mg/kg/injection, schedule: Q04DX002 (ip), vehicle: saline 95 % of control and 96 % of control | [11] 104 % of control | endpoint: mean survival time, dose: 400.0 mg/kg/injection, schedule: Q01DX001 (ip), vehicle: saline 86 % of control | [16] 96 % of control | endpoint: mean survival time, dose: 400.0 mg/kg/injection, schedule: Q04DX002 (ip), vehicle: saline 91 % of control and 107 % of control | [17] 95 % of control

CCOC(=O)c1ccc(NC(N)=S)cc1
inactive: endpoint: mean survival time, dose: 50.0 mg/kg/injection, schedule: Q01DX009 (ip), vehicle: other 98 % of control | endpoint: mean survival time, dose: 100.0 mg/kg/injection, schedule: Q01DX009 (ip), vehicle: other 95 % of control | endpoint: mean survival time, dose: 200.0 mg/kg/injection, schedule: Q01DX009 (ip), vehicle: other 95 % of control | endpoint: mean survival time, dose: 400.0 mg/kg/injection, schedule: Q01DX009 (ip), vehicle: other 91 % of control

CC(C)(C)S(=O)(=O)C(C)(C)C
inactive: [10] 98 % of control | [11] 93 % of control | [17] 93 % of control

NC(=O)C(CC(=O)OCc1ccccc1)NC(=O)OCc1ccccc1 (stereo unspecified)
inactive: endpoint: mean survival time, dose: 100.0 mg/kg/injection, schedule: Q04DX003 (ip), vehicle: saline + alcohol 97 % of control | endpoint: mean survival time, dose: 200.0 mg/kg/injection, schedule: Q04DX003 (ip), vehicle: saline + alcohol 97 % of control | endpoint: mean survival time, dose: 400.0 mg/kg/injection, schedule: Q04DX003 (ip), vehicle: saline + alcohol 97 % of control

CCN(CC)c1cccc(O)c1
inactive: [1] 92 % of control | [2] 98 % of control
